# Entries after “also recorded” stand apart in the source; their conditions may differ. Like-named read-outs stand apart in the source and are kept apart here.
# Experiments:
# [1] = test system: BHK-Ve cells (BHK-B cells treated with vincristine in the presence of verapamil); test: BHK-Ve cell growth inhibition; format: cell-based, hamster
# Protocol: (§1) Cell growth inhibition assays were performed according to published procedures (Crumpton).
# Verapamil inhibits drug binding to the p170 glycoprotein drug efflux pump.
# (§2) The HOS cell growth inhibition assays were done according to a published procedure (Crumpton). All cells were grown in Eagle's minimium essential medium supplemented with 10% fetal bovine serum. Flasks were seeded at a density of 1×10^3 cell/cm^2 for monolayer cultures or 2×10^4 /ml for suspension cultures. Suspension cultures were used immediately for drug addition after dilution to a suitable starting density, and, about 24 hours after seeding, the compounds to be tested were added to the monolayer cultures. […] Control flasks also contained 0.1% DMSO.
# (§3) Colonies of about 50 or more cells were counted and the plating efficiency was calculated as the per cent cells that were able to form colonies (Goz).
# [2] = test system: baby hamster kidney (BHK) cells; test: BHK cell growth inhibition; format: cell-based
# Protocol: (§4) Additionally, baby hamster kidney (BHK) cell growth inhibition by these derivatives was investigated.
# as §1, §2, §3
# [3] = test system: BHK-B cells (vincristine-selected, expressing p170 glycoprotein); conditions: for Export by the drug efflux pump: p170 glycoprotein, conclusion from BHK-B data; for BHK-B growth inhibition compared with BHK, in words: BHK-B versus BHK; for EC50: read-out: BHK-B-EC50
# Protocol: as §1
# BHK-B cells are baby hamster kidney cells that have been selected with 0.05 microgram/ml vincristine and that express p170 glycoprotein. Sensitivity of BHK-B cells to TFC, TMBC and vincristine was investigated.
# as §2, §3
# HOS colR cells = test: Protein-linked DNA breaks in HOS colR cells; format: cell-based, human; conditions: 20 micromolar, FIG. 9B
# Protocol: The amount of protein-linked DNA breaks caused by VP-16, TFC and TMBC were compared in HOS and HOS colR cells to determine whether […] glycoprotein expression would affect these drugs' ability to induce protein-linked DNA breaks and inhibit topoisomerase II activity.
# (§5) A modified K-SDS precipitation assay was used to quantitate in vivo formation of protein-linked DNA breaks (Rowe). HOS cells were grown in Eagle's medium. The DNA in logarithmically growing cells (about 2×10^5 cells) was labelled by adding tritiated methyl-thymidine (specific activity: 40 Ci/mmol) into the medium to a final concentration of 0.5 microCurie per ml. After overnight incubation, cells were washed and incubated for another 2 hours at 37° C. The cells were then treated with various concentrations of drugs for 30 minutes. The cells were lysed with 1 ml prewarmed lysis solution containing 1.25% SDS, 5 mM EDTA (pH 8) salmon sperm DNA (0.4 mg/ml).
# (§6) The lysate was transferred to a 1.5 ml Eppendorf tube and after syringing 8 times through a 22 G 11/2 gauge needle, 250 microliter of 325 mM KCl were added. The sample was cooled on ice for 10 minutes and centrifuged at 4° C. The pellet was resuspended in 10 mM Tris-HCl (pH 8)-100 mM KCl-1 mM EDTA and salmon sperm DNA (0.1 mg/ml) and placed at 65° C. for 10 minutes with occasional mixing. The suspension was cooled on ice for 10 minutes and recentrifuged. The pellet was washed again before resuspending in water (65° C.). The suspension was combined with 4 ml scintillation fluid and the radioactivity was determined.
# (§7) Protein-linked DNA breaks assays were performed as described for Example 4 using HOS and HOS colR cells. Cells were treated with 20 micromolar […], TFC and TMBC.
# [4] = test system: mammalian DNA topoisomerase II; conditions: D'Arpa; cited from earlier work
# [5] = test system: mammalian DNA topoisomerase II; test: P4 DNA unknotting assay, topoisomerase II inhibition in vitro; format: biochemical, HeLa (human); conditions: for Topoisomerase II activity on decreasing drug concentration (P4 DNA unknotting): 2-fold serial dilutions; for Potency relative to VP-16 (topoisomerase II inhibition): more potent than VP-16
# Protocol: DNA topoisomerase II was purified as described (Kashiwada). Briefly, a 150 mM NaCl extract from Triton X-100-treated HeLa cell nuclei was obtained. Salt was dialyzed and the partially purified enzyme was loaded on a heparin-Sepahrose CL-6B column and batch eluted with a buffer containing increasing salt concentrations.
# Enzyme activity was measured using the P4 DNA unknotting assay (Liu, 1981). P4 DNA isolated from bacteriophage P4 consists of monomeric DNA circles with their cohesive ends hydrogen-bonded and contains multiple topological knots. Such highly knotted P4 DNA can be converted to its simple circular form by mammalian DNA topoisomerase II, and can be used as a sensitive assay to detect topoisomerase II activity.
# P4 DNA unknotting reactions by topoisomerase II were performed in the absence or presence of potential topoisomerase II inhibitors. […] Products from the […] reactions were run out on an agarose gel to determine the extent of P4 DNA unknotting and stained with ethidium bromide.
# Topoisomerase II was purified from calf thymus by a known method (Kashiwada). P4 DNA was prepared as described (Liu, 1983). Agarose gel assays for P4 DNA unknotting were performed as follows. Reactions (20 microliters) containing 50 mM Tris-HCl (pH 7.5), 100 mM KCl, 10 mM magnesium chloride, 1 mM ATP, 0.5 mM dithiothreitol, 0.5 mM EDTA, bovine serum albumin (30 microgram/ml), 100 ng P4 DNA, one unit of HeLa DNA topoisomerase II, and varying concentrations of topoisomerase II inhibitors were incubated at 37° C. After 30 minutes, reactions were terminated by addition of a solution containing 10% SDS. The samples were electrophoresed through a 1% agarose gel in 90 mM Trisborate (pH 8.3)-2 mM EDTA buffer (Rowe).
# [6] = test system: human osteogenic sarcoma (HOS) cells; test: Protein-linked DNA breaks in HOS cells (K-SDS precipitation); format: cell-based; conditions: for Induction of protein-linked DNA breaks in HOS cells: 20 micromolar, FIG. 9B; for Induction of protein-linked DNA breaks: 30 minutes; for Reversal of protein-linked DNA breaks after drug removal: an hour after removal
# Protocol: Quantitation of protein-linked DNA breaks was performed according to a published procedure (Rowe). DNA in growing cells was labeled by adding methyl-^3 H-thymidine. […] Cells were lysed and protein-linked DNA complexes were precipitated by the K-SDS precipitiation method (Rowe).
# as §5, §6, §7
# [7] = test system: HOS cells resistant to colchicine (HOS colR), expressing p170 glycoprotein; test: HOS colR cell growth inhibition; format: cell-based, human; conditions: for EC50: HOS colR cells; for EC50 for HOS colR cells compared with HOS cells: HOS colR versus HOS not expressing p170
# Protocol: as §1, §2, §3
# [8] = test system: human osteogenic sarcoma (HOS) cells; test: HOS cell growth inhibition (antiproliferative activity); format: cell-based
# Protocol: as §4, §1, §2, §3
# HOS cells = test: Plating efficiency / cytotoxicity in HOS cells; conditions: one-hour treatment, Table 1
# Protocol: Plating efficiencies are indicative of a compound's cytotoxicity (Goz).
# as §3
# HIV replication = conditions: background (Baum); cited from earlier work
# [9] = background; cited from earlier work
# [10] = Table 2, read-out: HOS ColR EC50
# [11] = read-out: EC50, HOS cell replication
# [12] = 10-50 micromolar TFC, increasing concentrations TMBC
Compound,Export by the drug efflux pump [3],Induction of protein-linked DNA breaks in HOS colR cells (HOS colR cells),Induction of protein-linked DNA breaks in HOS cells [6],"EC50 [7, 10] [µM]","EC50 ([7]; read-out: EC50, HOS colR cells) [µM]",EC50 for HOS colR cells compared with HOS cells [7],"EC50 ([1]; Table 2, read-out: BHK-Ve-EC50) [µM]","EC50 ([1]; read-out: EC50, BHK-Ve cells) [µM]","EC50 ([8]; Table 1, read-out: HOS--EC50) [µM]","EC50 [8, 11] [µM]",Potency relative to VP-16 (topoisomerase II inhibition) [5],"Induction of protein-linked DNA breaks [6, 12]",Reversal of protein-linked DNA breaks after drug removal [6],"BHK-B growth inhibition compared with BHK, in words [3]","EC50 ([3]; BHK-B cells, Table 2) [µM]",HOS--LD50 (HOS cells) [µM],further results
"CC[C@]1(O)C[C@H]2CN(CCc3c([nH]c4ccccc34)[C@@](C(=O)OC)(c3cc4c(cc3OC)N(C=O)[C@H]3[C@@](O)(C(=O)OC)[C@H](OC(C)=O)[C@]5(CC)C=CCN6CC[C@]43[C@@H]65)C2)C1 [Vincristine, reference compound]",exported by the drug efflux pump,–,–,–,–,–,–,–,–,–,–,–,–,–,–,–,"BHK-Ve-EC50 / concentration necessary to inhibit BHK-Ve cell growth ([1]; Table 2): 2.7 µg/mL; BHK--EC50 ([2]; Table 1): 0.006 µg/mL; BHK-B-EC50 ([3]; BHK-B cells, Table 2): 0.34 µg/mL; Concentration necessary to inhibit BHK-B growth relative to BHK ([3]; hamster, bhk-b vs bhk cells): approximately 50 fold"
"COc1cc([C@@H]2c3cc4c(cc3[C@@H](O[C@@H]3O[C@@H]5CO[C@@H](C)O[C@H]5[C@H](O)[C@H]3O)[C@H]3COC(=O)[C@H]23)OCO4)cc(OC)c1O [VP-16, etoposide, reference compound]",–,limited effect in causing protein-linked DNA breaks,very effective to cause protein-linked DNA breaks,–,–,–,–,–,–,–,–,–,–,–,–,–,"Topoisomerase II inhibition, known [4]: known to inhibit topoisomerase II activity; Topoisomerase II activity on decreasing drug concentration (P4 DNA unknotting) ([5]; 100 to 12.5 micromolar, FIG. 8 lanes 3-6): increase of topoisomerase II activity as the concentration of VP-16 is decreased"
"O=C(N[C@H]1CCc2cc(O)c(O)c(O)c2-c2ccc(O)c(=O)cc21)c1cc(O)c(O)c(O)c1 [TMBC, N-(3',4',5'-trihydroxybenzoyl)-1,2,3,10-tetrademethyldeacetylcolchicine]",are not,Neither protein-linked DNA cleavage by either TFC or TMBC appear to be affected by the expression of g170 glycoprotein,can induce protein-linked DNA cleavage to a lesser extent,28,28,remained virtually unchanged,24,24,21,21,~17 fold,almost as effective as TFC for protein-linked DNA break induction; also recorded: induce protein-linked DNA breaks in a dose-dependent fashion,"more slowly reversed than for TFC, so that after an hour's time after reversal some protein-linked DNA breaks still remain",inhibited by approximately similar concentrations,13,18,"EC50 ([2]; Table 1, read-out: BHK--EC50): 28 µM; EC50 ([2]; read-out: EC50, BHK growth inhibition): 28 µM"
"COc1cc2c(c(OC)c1OC)-c1ccc(OC)c(=O)cc1[C@@H](NC(C)=O)CC2 [Colchicine, colchicine, reference compound]",–,–,–,–,–,–,–,–,–,–,–,–,–,–,–,–,Inhibition of HIV replication (HIV replication): inhibitor of HIV replication; Inhibition of topoisomerase II activity ([5]; concentrations as high as 200 micromolar): does not appear to inhibit topoisomerase II activity; Toxicity at therapeutic doses [9]: usually at toxic or nearly toxic doses; Induction of protein-linked DNA breaks ([6]; colchicine 50 micromolar): did not induce protein-linked DNA breaks
"O=C(N[C@H]1CCc2cc(O)c(O)c(O)c2-c2ccc(O)c(=O)cc21)C(F)(F)F [TFC, N-trifluoroacetyl-1,2,3,10-tetrademethyldeactylcolchicine]",are not,Neither protein-linked DNA cleavage by either TFC or TMBC appear to be affected by the expression of g170 glycoprotein,can induce protein-linked DNA cleavage to a lesser extent,26,26,remained virtually unchanged,37,37,28,28,about 2 fold,induces DNA breaks in a dose-dependent manner; also recorded: induce protein-linked DNA breaks in a dose-dependent fashion,within an hour all the protein-linked DNA breaks have been reversed,inhibited by approximately similar concentrations,82,14,"Topoisomerase II activity on decreasing drug concentration (P4 DNA unknotting) ([5]; 50 to 6.25 micromolar, FIG. 8 lanes 7-10): more striking increase of enzyme activity as the concentration of TFC is decreased; Protein-linked DNA breaks reversed within half an hour of drug removal ([6]; within half an hour after removal): approximately 90%"
